Measured values reported in patent publication US5756666A, “Peptides capable of inducing immune response to HIV” (priority 1993, dated 1998).
Ends that are not written are not given here.

System: T2-B * 3501 cells

With TPPLVKLWY [HIV(B35)-16] the “induction of CTL with specific cytotoxic activity” value was “effective for inducing CTLs capable of damaging the synthetic peptide-binding T2-B * 3501 cells”.
